In one experiment the target is T1, S100A4 (Homo sapiens, UniProt P26447).
T1 construct: human S100A4 (R&D Systems)
The experiment is described as follows: SPR direct binding to amine-coupled S100A4; SPR inhibition of S100A4 binding to immobilized RAGE (IC50 […], Figure 5C).

For a further experiment, the target named is T2, S100A9 (Homo sapiens, UniProt P06702).
T2 construct: recombinant human S100A9 (produced in E. coli)
T2 sequence (P06702 1-114): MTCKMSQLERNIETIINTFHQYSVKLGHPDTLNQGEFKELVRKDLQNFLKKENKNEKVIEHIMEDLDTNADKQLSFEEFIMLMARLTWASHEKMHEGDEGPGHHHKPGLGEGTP
The experiment is described as follows: SPR direct binding to amine-coupled S100A9; SPR inhibition of S100A9 binding to immobilized RAGE (IC50 […]) and TLR4 ([…]).

T1 sequence (P26447 2-101): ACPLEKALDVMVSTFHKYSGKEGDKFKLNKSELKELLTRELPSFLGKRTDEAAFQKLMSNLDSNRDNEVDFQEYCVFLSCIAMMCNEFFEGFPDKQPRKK

One may read the IC50 as the concentration that gives 50% inhibition. A low value points to greater potency. `O=C(Nc1cc(Cl)cc(Cl)c1O)c1c(O)c(Cl)cc(Cl)c1Cl` [OX, Oxyclozanide]: the half-maximal inhibitory concentration (IC50) at S100A4 is 52 µM; on S100A9 it was around 1.3 µM.

The values are drawn from paper PMC3648463, “Common Interactions between S100A4 and S100A9 Defined by a Novel Chemical Probe” (PLoS ONE, 2013).
